The source of these data is patent publication US20250145665A1, “MACROCYCLIC PEPTIDES USEFUL AS MODULATORS OF TNF ALPHA” (Bristol-Myers Squibb Company, priority 2023, published 2025).

Starred links: 1 amine or outer side, 2 acyl side, 3 side chain; linkers in the order of their positions; H or OH if unused. Positions of bridges follow the written chain, without caps; N, C: chain ends. Non-standard residues stand in square brackets, D forms with d. Residues, ends and D or L forms follow the SMILES beside them. *: point of attachment. Bip(4'-NHCO-C6H4-3-CH2COOH) = N[C@@H](Cc1ccc(-c2ccc(NC(=O)c3cccc(CC(=O)O)c3)cc2)cc1)C(=O)O; X79 = O=C(O)C1CCCC(C(=O)Nc2ccc(-c3ccc(C[C@H](N[*:1])C(=O)[*:2])cc3)cc2)C1; dArg(Nω-CH2C6H4-3-CH2Gua) = N=C(N)NCc1cccc(CNC(=N)NCCC[C@@H](N)C(=O)O)c1; Bip(4'-NH) = O=C([C@H](Cc1ccc(-c2ccc(N[*:3])cc2)cc1)N[*:1])[*:2]; Indazole3carbonyl(1-CH2COOH) = O=C(O)Cn1nc(C(=O)*)c2ccccc21; Bip(4'-COOH) = N[C@@H](Cc1ccc(-c2ccc(C(=O)O)cc2)cc1)C(=O)O; Bip(4'-NHAc) = CC(=O)Nc1ccc(-c2ccc(C[C@H](N)C(=O)O)cc2)cc1; X33 = N=C(NCCC[C@@H](N[*:1])C(=O)[*:2])NCc1cccc(CC(=O)O)c1; X80 = N=C(NCCC[C@@H](N[*:1])C(=O)[*:2])NCc1ccc2c(c1)OCO2; X11 = CC(=O)N[C@@H](Cc1cn(CC(=O)O)c2ccccc12)C(=O)*; dArg(ω-Bn) = N=C(NCCC[C@@H](N)C(=O)O)NCc1ccccc1; Ala(morpholin-4-yl) = N[C@@H](CN1CCOCC1)C(=O)O; Phe(3-CONH2) = NC(=O)c1cccc(C[C@H](N)C(=O)O)c1; Phe(4-CH2NH2) = NCc1ccc(C[C@H](N)C(=O)O)cc1; Bip = N[C@@H](Cc1ccc(-c2ccccc2)cc1)C(=O)O; Val(3-OH) = CC(C)(O)[C@H](N)C(=O)O; 2Pal = N[C@@H](Cc1ccccn1)C(=O)O; 2Thi = N[C@@H](Cc1cccs1)C(=O)O; Cha = N[C@@H](CC1CCCCC1)C(=O)O; Tle = CC(C)(C)[C@H](N)C(=O)O; Aze = O=C(O)[C@@H]1CCN1; Sar = CNCC(=O)O

Chain of TNFα (P01375 77-233 limits assumed): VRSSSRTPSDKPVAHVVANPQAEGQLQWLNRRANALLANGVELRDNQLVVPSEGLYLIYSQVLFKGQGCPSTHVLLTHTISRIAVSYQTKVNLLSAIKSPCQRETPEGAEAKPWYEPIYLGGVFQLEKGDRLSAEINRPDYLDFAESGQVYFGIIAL

The first experiment concerns the target TNFα (Homo sapiens, UniProt P01375). In words: TNF-Induced HEK-Blue Assay. It counts as cell-based.
Conditions: not given
In the case of `CC(C)C[C@@H]1NC(=O)[C@H](Cc2cnc[nH]2)NC(=O)[C@H](C(C)C)NC(=O)[C@@H]2CCCN2C(=O)[C@H](C(C)C)NC(=O)[C@@H](CCCNC(=N)NCc2ccccc2)NC(=O)[C@H](CC(=O)O)NC(=O)[C@H](Cc2ccccn2)NC(=O)CN(C)C(=O)[C@H](Cc2ccc(-c3ccc(NC(=O)c4nn(CC(=O)O)c5ccccc45)cc3)cc2)NC(=O)[C@H](Cc2ccc(-c3ccccc3)cc2)NC(=O)[C@H](CN2CCOCC2)NC(=O)CSC[C@@H](C(=O)NCC(N)=O)NC1=O` [Example 628] ({CH2CO}-[Ala(morpholin-4-yl)][Bip][Bip(4'-NH)](Indazole3carbonyl(1-CH2COOH))[Sar][2Pal]D[dArg(ω-Bn)]VPVHLCG-NH2; thioether N-13), the IC50 – broadly, the point on the concentration scale where inhibition reaches its midpoint – is below 50 nM.
`CC(C)C[C@@H]1NC(=O)[C@H](CCCNC(=N)N)NC(=O)[C@H](C(C)C)NC(=O)[C@@H]2CCCN2C(=O)[C@H](C(C)C)NC(=O)[C@@H](CCCNC(=N)NCc2ccc3c(c2)OCO3)NC(=O)[C@H](CC(=O)O)NC(=O)[C@@H]2CCCN2C(=O)CN(C)C(=O)[C@H](Cc2ccc(-c3ccc(NC(=O)c4nn(CC(=O)O)c5ccccc45)cc3)cc2)NC(=O)[C@H](Cc2ccc(-c3ccccc3)cc2)NC(=O)[C@H](CN2CCOCC2)NC(=O)CSC[C@@H](C(=O)NCC(N)=O)NC1=O` [Example 509] ({CH2CO}-[Ala(morpholin-4-yl)][Bip][Bip(4'-NH)](Indazole3carbonyl(1-CH2COOH))[Sar]PD[X80]VPVRLCG-NH2; thioether N-13) showed an IC50 below 50 nM.
Still for that read-out and setting: the value for `CC(C)C[C@@H]1NC(=O)[C@H](CCCNC(=N)N)NC(=O)[C@H](C(C)C)NC(=O)[C@@H]2CCCN2C(=O)[C@H](C(C)C)NC(=O)[C@@H](CCCNC(=N)NCc2cccc(CC(=O)O)c2)NC(=O)[C@H](CC(=O)O)NC(=O)[C@@H]2CCCN2C(=O)CN(C)C(=O)[C@H](Cc2ccc(-c3ccc(NC(=O)c4nn(CC(=O)O)c5ccccc45)cc3)cc2)NC(=O)[C@H](Cc2ccc(-c3ccccc3)cc2)NC(=O)[C@H](CN2CCOCC2)NC(=O)CSC[C@@H](C(=O)NCC(N)=O)NC1=O` [Example 511] ({CH2CO}-[Ala(morpholin-4-yl)][Bip][Bip(4'-NH)](Indazole3carbonyl(1-CH2COOH))[Sar]PD[X33]VPVRLCG-NH2; thioether N-13) was 50 to 200 nM.

The same experiment, now with this note: HEK-Blue-CD40L cells, NF-kB-driven secreted alkaline phosphatase reporter; TNFα 0.5 ng/ml; 18 h; read-out: TNF induced HEK-Blue assay IC50 value.
Take `CC(=O)Nc1ccc(-c2ccc(C[C@@H]3NC(=O)[C@H](Cc4ccc(-c5ccccc5)cc4)NC(=O)[C@H](Cc4c[nH]c5ccccc45)NC(=O)CSC[C@@H](C(=O)NCC(N)=O)NC(=O)[C@H](CC(C)C)NC(=O)[C@H](Cc4ccc(O)cc4)NC(=O)[C@H](C(C)C)NC(=O)[C@@H]4CCCN4C(=O)[C@H](C(C)C)NC(=O)[C@@H](CCCNC(=N)N)NC(=O)[C@H](CC(=O)O)NC(=O)[C@H](Cc4ccccn4)NC(=O)CN(C)C3=O)cc2)cc1` [Example 197] ({CH2CO}-W[Bip][Bip(4'-NHAc)][Sar][2Pal]D[dR]VPVYLCG-NH2; thioether N-13): the IC50 is 50 to 200 nM.
Still for that read-out and setting: the value for `CC(=O)Nc1ccc(-c2ccc(C[C@@H]3NC(=O)[C@H](Cc4ccc(-c5ccc(C(=O)O)cc5)cc4)NC(=O)[C@H](CC4CCCCC4)NC(=O)CSC[C@@H](C(=O)NCC(N)=O)NC(=O)[C@H](CC(C)C)NC(=O)[C@H](Cc4cccs4)NC(=O)[C@H](C(C)C)NC(=O)[C@@H]4CCCN4C(=O)[C@H](C(C)C)NC(=O)[C@@H](CCCNC(=N)N)NC(=O)[C@H](CC(=O)O)NC(=O)[C@@H]4CCCN4C(=O)CN(C)C3=O)cc2)cc1` [Example 245] ({CH2CO}-[Cha][Bip(4'-COOH)][Bip(4'-NHAc)][Sar]PD[dR]VPV[2Thi]LCG-NH2; thioether N-13) was 200 to 2000 nM; that for `CC[C@H](C)[C@@H]1NC(=O)[C@@H](CCCNC(=N)N)NC(=O)[C@H](CC(=O)O)NC(=O)[C@H](Cc2cnc[nH]2)NC(=O)CN(C)C(=O)[C@H](Cc2ccc(-c3ccc(NC(=O)C4CCCC(C(=O)O)C4)cc3)cc2)NC(=O)[C@H](Cc2ccc(-c3ccccc3)cc2)NC(=O)[C@H](CC2CCCCC2)NC(=O)CSC[C@@H](C(=O)NCC(N)=O)NC(=O)[C@H](CC(C)C)NC(=O)[C@H](Cc2cnc[nH]2)NC(=O)[C@H](C(C)C)NC(=O)[C@@H]2CCCN2C1=O` (some centres unmarked) [Example 317] ({CH2CO}-[Cha][Bip][X79][Sar]HD[dR]IPVHLCG-NH2; thioether N-13) was 50 to 200 nM.
The same measure, in the same setting: then `CC[C@H](C)[C@@H]1NC(=O)[C@@H]2CCCN2C(=O)[C@H]([C@@H](C)CC)NC(=O)[C@@H](CCCNC(=N)N)NC(=O)[C@H](CC(=O)O)NC(=O)[C@H](Cc2ccccn2)NC(=O)CN(C)C(=O)[C@H](Cc2ccc(-c3ccc(NC(=O)[C@H](Cc4cn(CC(=O)O)c5ccccc45)NC(C)=O)cc3)cc2)NC(=O)[C@H](Cc2ccc(-c3ccccc3)cc2)NC(=O)[C@H](C(C)(C)C)NC(=O)CSC[C@@H](C(=O)NCC(N)=O)NC(=O)[C@H](CC(C)C)NC(=O)[C@H](Cc2cccc(C(N)=O)c2)NC1=O` [Example 379] ({CH2CO}-[Tle][Bip][Bip(4'-NH)](X11)[Sar][2Pal]D[dR]IPI[Phe(3-CONH2)]LCG-NH2; thioether N-13), with 50 to 200 nM; and `CC(=O)Nc1ccc(-c2ccc(C[C@@H]3NC(=O)[C@H](Cc4ccc(-c5ccccc5)cc4)NC(=O)[C@H](CN4CCOCC4)NC(=O)CSC[C@@H](C(=O)NCC(N)=O)NC(=O)[C@H](CC(C)C)NC(=O)[C@H](Cc4ccc(O)cc4)NC(=O)[C@H](C(C)C)NC(=O)[C@@H]4CCN4C(=O)[C@H](C(C)C)NC(=O)[C@@H](CCCNC(=N)N)NC(=O)[C@H](CC(=O)O)NC(=O)[C@H](Cc4ccccn4)NC(=O)CN(C)C3=O)cc2)cc1` [Example 170] ({CH2CO}-[Ala(morpholin-4-yl)][Bip][Bip(4'-NHAc)][Sar][2Pal]D[dR]V[Aze]VYLCG-NH2; thioether N-13), with below 50 nM.
Still for that read-out and setting: then `CC(C)C[C@@H]1NC(=O)[C@H](CCCNC(=N)N)NC(=O)[C@H](C(C)C)NC(=O)[C@@H]2CCCN2C(=O)[C@H](Cc2ccc(CN)cc2)NC(=O)[C@H](CCCNC(=N)N)NC(=O)[C@H](CC(=O)O)NC(=O)[C@@H]2CCCN2C(=O)CN(C)C(=O)[C@H](Cc2ccc(-c3ccccc3)cc2)NC(=O)[C@H](Cc2ccc(-c3ccccc3)cc2)NC(=O)[C@H](C(C)(C)O)NC(=O)CSC[C@@H](C(=O)NCC(N)=O)NC1=O` [Example 57] ({CH2CO}-[Val(3-OH)][Bip][Bip][Sar]PDR[Phe(4-CH2NH2)]PVRLCG-NH2; thioether N-13), with 50 to 200 nM.
Consider `CC(C)C[C@@H]1NC(=O)[C@H](CCCNC(=N)N)NC(=O)[C@H](C(C)C)NC(=O)[C@@H]2CCCN2C(=O)[C@H](C(C)C)NC(=O)[C@@H](CCCNC(=N)NCc2cccc(CNC(=N)N)c2)NC(=O)[C@H](CC(=O)O)NC(=O)[C@@H]2CCCN2C(=O)CN(C)C(=O)[C@H](Cc2ccc(-c3ccc(NC(=O)c4cccc(CC(=O)O)c4)cc3)cc2)NC(=O)[C@H](Cc2ccc(-c3ccccc3)cc2)NC(=O)[C@H](CN2CCOCC2)NC(=O)CSC[C@@H](C(=O)NCC(N)=O)NC1=O` [Example 570] ({CH2CO}-[Ala(morpholin-4-yl)][Bip][Bip(4'-NHCO-C6H4-3-CH2COOH)][Sar]PD[dArg(Nω-CH2C6H4-3-CH2Gua)]VPVRLCG-NH2; thioether N-13), for which the half-inhibitory concentration (IC50) is 50 to 200 nM.
For `CC(C)C[C@@H]1NC(=O)[C@H](CCCNC(=N)N)NC(=O)[C@H](C(C)C)NC(=O)[C@@H]2CCCN2C(=O)[C@H](C(C)C)NC(=O)[C@H](CCCNC(=N)N)NC(=O)[C@H](CC(=O)O)NC(=O)[C@@H]2CCCN2C(=O)CN(C)C(=O)[C@H](Cc2ccc(-c3ccccc3)cc2)NC(=O)[C@H](Cc2ccc(-c3ccccc3)cc2)NC(=O)[C@H](Cc2c[nH]c3ccccc23)NC(=O)CSC[C@@H](C(=O)NCC(N)=O)NC1=O` [Example 5] ({CH2CO}-W[Bip][Bip][Sar]PDRVPVRLCG-NH2; thioether N-13), the IC50 was 200 to 2000 nM.
